Experimental data as given in ChEMBL document CHEMBL1134282 (J Med Chem, 2001).

Experiments:
Acetylcholinesterase = Acetylcholinesterase (Homo sapiens, UniProt P22303); assay: In vitro inhibition of human erythrocyte acetylcholinesterase.
Cholinesterase = Cholinesterase (Homo sapiens, UniProt P06276); assay: In vitro inhibition of human plasma butyrylcholinesterase.; type: cell-free
Chain of Cholinesterase (P06276 whole entry): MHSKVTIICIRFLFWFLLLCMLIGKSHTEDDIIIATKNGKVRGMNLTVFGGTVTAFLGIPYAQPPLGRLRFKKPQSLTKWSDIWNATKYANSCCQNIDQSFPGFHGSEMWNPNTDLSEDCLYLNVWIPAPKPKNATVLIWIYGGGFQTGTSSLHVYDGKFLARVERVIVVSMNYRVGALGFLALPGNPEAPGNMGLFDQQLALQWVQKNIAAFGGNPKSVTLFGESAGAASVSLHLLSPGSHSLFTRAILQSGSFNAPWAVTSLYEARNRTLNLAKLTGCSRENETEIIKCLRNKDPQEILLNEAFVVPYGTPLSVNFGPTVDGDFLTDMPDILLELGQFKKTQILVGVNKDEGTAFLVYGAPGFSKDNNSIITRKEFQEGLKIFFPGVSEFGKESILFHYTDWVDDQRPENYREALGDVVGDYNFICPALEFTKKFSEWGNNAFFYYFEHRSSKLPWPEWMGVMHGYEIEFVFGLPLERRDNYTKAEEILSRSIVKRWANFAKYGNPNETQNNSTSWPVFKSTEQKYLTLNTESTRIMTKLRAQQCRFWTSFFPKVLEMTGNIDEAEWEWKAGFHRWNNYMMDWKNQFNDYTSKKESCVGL

Chain of Acetylcholinesterase (P22303 whole entry): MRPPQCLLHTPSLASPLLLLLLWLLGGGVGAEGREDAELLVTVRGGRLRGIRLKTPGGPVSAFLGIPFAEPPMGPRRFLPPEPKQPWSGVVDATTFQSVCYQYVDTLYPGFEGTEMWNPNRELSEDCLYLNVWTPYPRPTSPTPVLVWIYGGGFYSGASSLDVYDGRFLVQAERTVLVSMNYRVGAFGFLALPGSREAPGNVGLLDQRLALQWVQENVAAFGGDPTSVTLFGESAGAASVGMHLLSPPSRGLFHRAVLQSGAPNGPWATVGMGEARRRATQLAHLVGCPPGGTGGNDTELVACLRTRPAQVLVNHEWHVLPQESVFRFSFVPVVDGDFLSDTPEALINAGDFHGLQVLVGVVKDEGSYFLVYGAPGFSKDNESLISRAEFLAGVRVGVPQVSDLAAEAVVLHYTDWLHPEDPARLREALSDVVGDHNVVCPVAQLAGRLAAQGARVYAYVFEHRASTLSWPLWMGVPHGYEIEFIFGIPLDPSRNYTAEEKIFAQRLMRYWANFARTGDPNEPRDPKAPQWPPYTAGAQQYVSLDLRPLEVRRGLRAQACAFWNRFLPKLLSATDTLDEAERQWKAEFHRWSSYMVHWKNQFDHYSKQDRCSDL

| Structure (SMILES) | IC50 (Acetylcholinesterase) [nM] | IC50 (Cholinesterase) [nM] |
| --- | --- | --- |
| CC(C)c1ccccc1NC(=O)Oc1ccc2c(c1)[C@]1(C)CCN(C)[C@@H]1N2C | 15 | 650 |
| Cc1ccc(NC(=O)Oc2ccc3c(c2)[C@]2(C)CCN(C)[C@@H]2N3C)cc1C | 31 | 66 |
| Cc1cc(C)cc(NC(=O)Oc2ccc3c(c2)[C@]2(C)CCN(C)[C@@H]2N3C)c1 | 78 | 798 |
| Cc1cccc(NC(=O)Oc2ccc3c(c2)[C@]2(C)CCN(C)[C@@H]2N3C)c1 | 28 | 165 |
| CN(C(=O)Oc1ccc2c(c1)[C@]1(C)CCN(C)[C@@H]1N2C)c1ccccc1 | 690 | > 10000 |
| CN(C)Cc1cc2c(cc1OC(=O)Nc1ccccc1)[C@]1(C)CCN(C)[C@@H]1N2C | 2500 | 3890 |
| Cc1cc2c(cc1OC(=O)Nc1ccccc1)[C@]1(C)CCN(C)[C@@H]1N2C | 260 | 5020 |
| CNC(=O)Oc1cc2c(cc1C)N(C)[C@H]1N(C)CC[C@@]21C | > 10000 | 8530 |
| CCc1cccc(CC)c1NC(=O)Oc1ccc2c(c1)[C@]1(C)CCN(C)[C@@H]1N2C | – | 1100 |
| Cc1ccc(NC(=O)Oc2ccc3c(c2)[C@]2(C)CCN(C)[C@@H]2N3C)c(C)c1 | 14 | – |
| Cc1cccc(NC(=O)Oc2ccc3c(c2)[C@]2(C)CCN(C)[C@@H]2N3C)c1C | 23 | 170 |
| Cc1ccc(C)c(NC(=O)Oc2ccc3c(c2)[C@]2(C)CCN(C)[C@@H]2N3C)c1 | 26 | 490 |
| Cc1cccc(C)c1NC(=O)Oc1ccc2c(c1)[C@]1(C)CCN(C)[C@@H]1N2C | 785 | 290 |
| CCc1ccccc1NC(=O)Oc1ccc2c(c1)[C@]1(C)CCN(C)[C@@H]1N2C [ETHYLPHENSERINE] | 10 | – |
| CN1CC[C@@]2(C)c3cc(OC(=O)Nc4ccccc4)ccc3N(C)[C@@H]12 [PHENSERINE] | – | 1560 |
